Twelve compounds from ChEMBL document CHEMBL1944503, “Synthesis and biological evaluation of conjugates of deoxypodophyllotoxin and 5-FU as inducer of caspase-3 and -7” (Eur J Med Chem, 2012) can be followed below.

SMILES strings stand for the structures. pIC50: −log10 of the molar value. Active and inactive are the calls of the source. The calls are words filed in the database; no cut-off is given here.

Usually pIC50 stands for the negative decadic logarithm of the IC50, by convention in mol/L. The low end stands for a high IC50, the high end for a low IC50.

One test deals with SiHa. In words: Cytotoxicity against human SiHa cells after 48 hrs by MTT assay. The class given is functional, cell-based.
For the next test, the system named is HeLa. The experiment in a line: Cytotoxicity against human HeLa cells after 48 hrs by CCK-8 assay. The class given is functional, cell-based. A general note: Formazan colour is commonly taken as a measure of viable cells.
Test [1] deals with A549. The experiment in a line: cells. The following applies: Homo sapiens, A549, 48 h.
Description: Cytotoxicity against human A549 cells after 48 hrs by MTT assay
Another test deals with HL-60. The experiment in a line: Cytotoxicity against human HL60 cells after 48 hrs by CCK-8 assay. The class given is functional, cell-based. The following applies: HL-60, 48 h.
The test system of test [2] is A549. The experiment in a line: Cell cycle arrest in human A549 cells assessed as accumulation at G1 phase at 0.5 uM by propidium iodide staining based flow cytometry analysis. Format: functional. The following applies: TDE = time-dependent effect. For orientation: In flow cytometry, cells or beads pass a laser one at a time.
The subject of test [3] is A549. The experiment in a line: Induction of apoptosis in human A549 cells assessed as cell shrinkage at 0.5 uM after 24 hrs by Hoechst 33258 staining based fluorescence microscopy. The class given is functional.
The test system of test [4] is A549. In words: Induction of apoptosis in human A549 cells assessed as nuclear fragmentation at 0.5 uM after 24 hrs by Hoechst 33258 staining based fluorescence microscopy. The class given is functional, cell-based.
Test [5] relates to A549. The experiment in a line: Cell cycle arrest in human A549 cells assessed as accumulation at G1 phase at 0.5 uM after 24 hrs by propidium iodide staining based flow cytometry analysis (reference value: 54.1%). The class given is functional.
Test [6] deals with A549. In words: Induction of apoptosis in human A549 cells assessed as membrane blebbing at 0.5 uM after 24 hrs by Hoechst 33258 staining based fluorescence microscopy. Format: functional, cell-based.
Test [7] relates to A549. In words: Cell cycle arrest in human A549 cells assessed as accumulation at G2/M phase at 0.5 uM by propidium iodide staining based flow cytometry analysis. The class given is functional. The following applies: TDE = time-dependent effect.
For test [8], the system named is A549. In words: Cell cycle arrest in human A549 cells assessed as accumulation at G2/M phase at 0.5 uM after 12 hrs by propidium iodide staining based flow cytometry analysis (reference value: 15.6%). Format: functional.
Test [9] relates to A549. In words: Induction of apoptosis in human A549 cells assessed as nuclear condensation at 0.5 uM after 24 hrs by Hoechst 33258 staining based fluorescence microscopy. The class given is functional, cell-based.
Test [10] deals with A549. In words: Induction of apoptosis in human A549 cells assessed as increase in caspase-7 cleavage at 0.5 uM by Western blot analysis. The class given is functional, cell-based. The following applies: TDE = time-dependent effect. In general terms: A western blot detects proteins with antibodies after separation by electrophoresis.
Test [11] has as its system A549. The experiment in a line: Induction of apoptosis in human A549 cells assessed as increase in caspase-3 cleavage at 0.5 uM by Western blot analysis. The class given is functional, cell-based. The following applies: TDE = time-dependent effect.
The subject of test [12] is A549. The experiment in a line: Cell cycle arrest in human A549 cells assessed as accumulation at G2/M phase at 0.5 uM after 24 hrs by propidium iodide staining based flow cytometry analysis (reference value: 15.6%). Format: functional.
Test [13] deals with A549. In words: Induction of apoptosis in human A549 cells assessed as cell detachment at 0.5 uM after 24 hrs by Hoechst 33258 staining based fluorescence microscopy. Format: functional.
Test [14] deals with A549. The experiment in a line: Cell cycle arrest in human A549 cells assessed as accumulation at S phase at 0.5 uM after 12 hrs by propidium iodide staining based flow cytometry analysis (reference value: 30.3%). The class given is functional.
For test [15], the system named is A549. In words: Cell cycle arrest in human A549 cells assessed as accumulation at G1 phase at 0.5 uM after 12 hrs by propidium iodide staining based flow cytometry analysis (reference value: 54.1%). The class given is functional.
The subject of test [16] is A549. The experiment in a line: Cell cycle arrest in human A549 cells assessed as accumulation at S phase at 0.5 uM after 24 hrs by propidium iodide staining based flow cytometry analysis (reference value: 30.3%). Format: functional.

As to `COc1cc([C@@H]2c3cc4c(cc3C[C@H]3COC(=O)[C@@H]32)OCO4)cc(OC)c1O` [4'-DEMETHYLDEOXYPODOPHYLLOTOXIN], the negative-log IC50 (pIC50) is 4.37 in the test on SiHa and 4.27 in the test on HeLa.

In the case of `COc1cc([C@@H]2c3cc4c(cc3C[C@H]3COC(=O)[C@@H]32)OCO4)cc(OC)c1OC(=O)[C@@H](NC(=O)Cn1cc(F)c(=O)[nH]c1=O)C(C)C`, the pIC50 is 5.78 in the test with SiHa, 6.44 in the test with A549 [1], 5.91 in the test on HeLa and 6.85 with HL-60.

Regarding `COc1cc([C@@H]2c3cc4c(cc3C[C@H]3COC(=O)[C@@H]32)OCO4)cc(OC)c1OC(=O)[C@H](Cc1ccccc1)NC(=O)Cn1cc(F)c(=O)[nH]c1=O`, the Activity result is “tde” in the test with A549 [2]; 3.94% in the test on A549 [5]; “tde” in the test with A549 [7]; 52.6% with A549 [8]; “tde” in the test on A549 [10]; “tde” in the test with A549 [11]. Besides, the Activity came out at 64.8% with A549 [12], 42.6% in the test with A549 [14], 4.84% in the test on A549 [15] and 31.3% with A549 [16]. Further, the result with A549 [3], with A549 [4], in the test on A549 [6], in the test with A549 [9] and with A549 [13] was Active. Besides, the negative logarithm of the IC50 (pIC50) was 6.12 in the test with SiHa, 6.25 in the test on A549 [1], 6.08 in the test with HeLa and 7.64 in the test on HL-60.

In the case of `COc1cc([C@@H]2c3cc4c(cc3[C@H](O)[C@H]3COC(=O)[C@H]23)OCO4)cc(OC)c1OC`, the outcome in the test on A549 [3], in the test with A549 [4], in the test with A549 [6], with A549 [9] and in the test with A549 [13] was Active.

With `COc1cc([C@@H]2c3cc4c(cc3C[C@H]3COC(=O)[C@@H]32)OCO4)cc(OC)c1OC` [DESOXYPODOPHYLLOTOXIN], the pIC50 is 5.70 with SiHa and 5.22 with HeLa.

For the compound `COc1cc([C@@H]2c3cc4c(cc3C[C@H]3COC(=O)[C@@H]32)OCO4)cc(OC)c1OC(=O)[C@H](C)NC(=O)Cn1cc(F)c(=O)[nH]c1=O`, the pIC50 was 6.22 with SiHa, 5.85 in the test with A549 [1], 6.70 in the test on HeLa and 6.72 in the test on HL-60.

For the compound `O=c1[nH]cc(F)c(=O)[nH]1` [FLUOROURACIL], the pIC50 with SiHa was 3.66; with A549 [1], 4.26; in the test on HeLa, 4.09; in the test on HL-60, 4.17.

For the compound `COc1cc([C@@H]2c3cc4c(cc3C[C@H]3COC(=O)[C@@H]32)OCO4)cc(OC)c1OC(=O)[C@@H](CCSC)NC(=O)Cn1cc(F)c(=O)[nH]c1=O`, the pIC50 was 5.82 with SiHa, 5.59 in the test on A549 [1], 5.71 in the test on HeLa and 6.03 in the test with HL-60.

With `COc1cc([C@@H]2c3cc4c(cc3C[C@H]3COC(=O)[C@@H]32)OCO4)cc(OC)c1OC(=O)[C@H](CC(C)C)NC(=O)Cn1cc(F)c(=O)[nH]c1=O`, the pIC50 in the test on SiHa was 6.46; in the test with A549 [1], 5.97; with HeLa, 6.37; in the test on HL-60, 7.20.

As for `COc1cc([C@@H]2c3cc4c(cc3C[C@H]3COC(=O)[C@@H]32)OCO4)cc(OC)c1OC(=O)Cn1cc(F)c(=O)[nH]c1=O`, the pIC50 is 6.96 with SiHa, 6.18 with A549 [1], 6.74 in the test with HeLa and 7.46 with HL-60.

For `COc1cc([C@@H]2c3cc4c(cc3[C@@H](O[C@@H]3O[C@@H]5CO[C@@H](C)O[C@H]5[C@H](O)[C@H]3O)[C@H]3COC(=O)[C@H]23)OCO4)cc(OC)c1O` [ETOPOSIDE], the pIC50 in the test on SiHa is 5.56; in the test on HeLa it was 4.39.

In the case of `COc1cc([C@@H]2c3cc4c(cc3C[C@H]3COC(=O)[C@@H]32)OCO4)cc(OC)c1OC(=O)[C@H](CCSC)NC(=O)Cn1cc(F)c(=O)[nH]c1=O`, the negative logarithm of the IC50 (pIC50) in the test on SiHa was 6.44; in the test with A549 [1], 6.08; with HeLa, 6.11; with HL-60 it was 6.64.
